# Laboratory results reported in ChEMBL document CHEMBL1143454, “Arylphthalazines: identification of a new phthalazine chemotype as inhibitors of VEGFR kinase” (Bioorg Med Chem Lett, 2005).
# Key:
# [1] = target: Vascular endothelial growth factor receptor 1 (Homo sapiens) (UniProt P17948); assay: Percent inhibition of Vascular endothelial growth factor receptor 1 at 10 uM
# [2] = target: Vascular endothelial growth factor receptor 2 (Homo sapiens, UniProt P35968); assay: Inhibition of Vascular endothelial growth factor receptor 2 kinase phosphorylation of pGAT-biotin peptide
# Vascular endothelial growth factor receptor 2, sequence (P35968 whole entry): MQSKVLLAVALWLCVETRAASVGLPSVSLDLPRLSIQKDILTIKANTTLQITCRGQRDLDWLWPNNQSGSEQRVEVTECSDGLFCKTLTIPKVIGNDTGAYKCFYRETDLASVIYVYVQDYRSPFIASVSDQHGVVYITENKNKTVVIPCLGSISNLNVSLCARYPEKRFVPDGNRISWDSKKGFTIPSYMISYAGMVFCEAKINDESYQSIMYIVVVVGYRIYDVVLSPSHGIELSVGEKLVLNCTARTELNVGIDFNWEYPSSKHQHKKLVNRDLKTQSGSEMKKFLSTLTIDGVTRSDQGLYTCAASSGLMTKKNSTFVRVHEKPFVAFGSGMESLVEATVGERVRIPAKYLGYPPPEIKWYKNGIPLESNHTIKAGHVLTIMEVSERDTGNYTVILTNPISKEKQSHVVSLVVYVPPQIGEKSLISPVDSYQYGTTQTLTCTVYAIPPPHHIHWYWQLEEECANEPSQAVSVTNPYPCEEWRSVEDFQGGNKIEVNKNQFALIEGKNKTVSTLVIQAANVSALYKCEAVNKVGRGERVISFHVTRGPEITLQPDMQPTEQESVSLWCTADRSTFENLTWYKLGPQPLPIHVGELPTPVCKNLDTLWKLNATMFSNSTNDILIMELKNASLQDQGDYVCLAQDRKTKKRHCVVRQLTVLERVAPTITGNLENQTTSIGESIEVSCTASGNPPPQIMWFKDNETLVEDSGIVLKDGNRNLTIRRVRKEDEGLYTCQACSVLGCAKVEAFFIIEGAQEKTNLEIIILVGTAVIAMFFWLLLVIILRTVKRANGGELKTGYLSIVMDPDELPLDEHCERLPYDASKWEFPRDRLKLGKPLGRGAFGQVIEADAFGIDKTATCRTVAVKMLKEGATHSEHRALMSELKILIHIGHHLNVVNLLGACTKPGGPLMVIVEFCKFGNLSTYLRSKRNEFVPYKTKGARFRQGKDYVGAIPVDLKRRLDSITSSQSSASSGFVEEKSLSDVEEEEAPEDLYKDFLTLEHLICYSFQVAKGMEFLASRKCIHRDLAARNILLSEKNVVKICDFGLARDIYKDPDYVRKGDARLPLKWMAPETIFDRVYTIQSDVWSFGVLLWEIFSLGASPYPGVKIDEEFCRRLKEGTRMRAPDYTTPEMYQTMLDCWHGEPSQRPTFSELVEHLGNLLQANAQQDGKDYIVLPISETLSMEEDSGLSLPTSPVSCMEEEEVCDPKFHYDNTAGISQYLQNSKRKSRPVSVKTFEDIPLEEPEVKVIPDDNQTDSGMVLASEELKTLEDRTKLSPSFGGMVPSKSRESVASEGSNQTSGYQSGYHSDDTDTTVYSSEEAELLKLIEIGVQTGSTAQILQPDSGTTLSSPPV
# Vascular endothelial growth factor receptor 1 (Homo sapiens), sequence (P17948 whole entry): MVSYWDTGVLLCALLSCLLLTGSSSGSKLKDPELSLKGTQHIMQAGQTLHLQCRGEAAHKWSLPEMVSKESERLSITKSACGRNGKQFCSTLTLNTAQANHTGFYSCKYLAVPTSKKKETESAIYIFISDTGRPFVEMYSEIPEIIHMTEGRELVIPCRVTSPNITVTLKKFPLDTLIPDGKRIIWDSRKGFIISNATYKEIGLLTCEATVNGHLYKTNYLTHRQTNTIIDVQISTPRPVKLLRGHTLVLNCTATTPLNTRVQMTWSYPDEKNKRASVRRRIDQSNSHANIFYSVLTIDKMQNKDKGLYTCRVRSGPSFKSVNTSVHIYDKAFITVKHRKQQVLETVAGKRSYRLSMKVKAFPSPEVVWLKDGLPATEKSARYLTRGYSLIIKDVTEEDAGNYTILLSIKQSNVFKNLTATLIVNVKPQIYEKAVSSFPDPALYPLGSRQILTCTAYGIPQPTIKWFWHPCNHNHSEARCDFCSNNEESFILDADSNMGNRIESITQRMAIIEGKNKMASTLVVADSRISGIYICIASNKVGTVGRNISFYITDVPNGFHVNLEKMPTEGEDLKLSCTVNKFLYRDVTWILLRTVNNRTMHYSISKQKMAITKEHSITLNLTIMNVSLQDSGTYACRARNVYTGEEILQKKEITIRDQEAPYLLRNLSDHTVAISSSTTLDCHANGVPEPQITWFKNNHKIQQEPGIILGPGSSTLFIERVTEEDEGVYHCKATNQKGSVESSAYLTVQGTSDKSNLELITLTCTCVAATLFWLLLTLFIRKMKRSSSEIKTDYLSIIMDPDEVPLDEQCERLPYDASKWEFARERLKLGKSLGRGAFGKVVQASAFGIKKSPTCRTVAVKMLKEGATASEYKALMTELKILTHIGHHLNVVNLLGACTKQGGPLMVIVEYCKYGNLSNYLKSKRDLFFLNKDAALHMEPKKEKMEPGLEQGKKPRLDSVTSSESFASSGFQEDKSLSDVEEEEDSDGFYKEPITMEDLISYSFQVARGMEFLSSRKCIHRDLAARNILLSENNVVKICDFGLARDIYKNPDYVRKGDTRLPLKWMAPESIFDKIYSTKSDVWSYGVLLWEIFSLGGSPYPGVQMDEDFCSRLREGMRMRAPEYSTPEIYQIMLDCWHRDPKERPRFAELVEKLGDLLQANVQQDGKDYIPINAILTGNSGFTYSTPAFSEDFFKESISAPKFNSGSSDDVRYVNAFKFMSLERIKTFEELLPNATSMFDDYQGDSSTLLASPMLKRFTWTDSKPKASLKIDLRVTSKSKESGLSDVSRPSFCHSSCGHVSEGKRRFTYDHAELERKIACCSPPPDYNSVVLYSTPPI
inhibition [1] [%],IC50 [2] [µM],Compound
73,–,CC(C)(C)c1ccc(Nc2nnc(-c3ccc(C(N)=O)cc3)c3ccccc23)cc1
–,> 10,CCOc1ccc(-c2nnc(Nc3ccc(C)cc3)c3ccccc23)cc1
–,> 10,NC(=O)c1ccc(-c2nnc(Nc3ccc(S(N)(=O)=O)cc3)c3ccccc23)cc1
–,1.1,O=C(NCCO)c1ccc(-c2nnc(Nc3ccc(OC(F)(F)Cl)cc3)c3ccccc23)cc1
–,> 10,CC(C)(C)NC(=O)c1ccc(-c2nnc(Nc3ccc(OC(F)(F)Cl)cc3)c3ccccc23)cc1
–,> 10,Cc1ccc(-c2nnc(Nc3ccc(OC(F)(F)Cl)cc3)c3ccccc23)cc1S(=O)(=O)NC(C)C
–,2,COc1ccc(Nc2nnc(-c3ccc(C(N)=O)cc3)c3ccccc23)cc1
51,–,NC(=O)c1ccc(-c2nnc(Nc3cccc(Br)c3)c3ccccc23)cc1
53,–,NC(=O)c1ccc(-c2nnc(Nc3ccc(Br)cc3)c3ccccc23)cc1
60,–,CC(C)(C)c1cccc(Nc2nnc(-c3ccc(C(N)=O)cc3)c3ccccc23)c1
